# Assay results from patent publication US20190127456A1, “METHODS OF TREATING IDIOPATHIC PULMONARY FIBROSIS” (FibroGen, Inc., priority 2017, published 2019).
# Columns and labels:
# [1] = system: radiation-induced lung fibrosis; test: Mouse radiation-induced lung fibrosis model: lung density by HRCT; type: in vivo; details: 14.5 Gy irradiated mice, treated 8 weeks from week 16, measured at 24 weeks; FIG. 2
# Experimental: The objective of this study was to compare the activity of pamrevlumab monotherapy to either pirfenidone or nintedanib alone, and to evaluate the potential for enhanced activity of the combined agents. […] In this study, mice received thoracic irradiation (RT), followed by the therapeutic administration of the agents at 16 weeks post-irradiation when lung remodeling was evident by HRCT. After 8 weeks of drug treatment, lung density and volume were assessed by HRCT, lung function was assessed by blood gas analysis, and mice were sacrificed for histologic and gene expression analysis. C57B1/6 mice were irradiated with 14.5 Gy photons; full thorax, single dose. Treatment with therapeutic agent(s) (pamrevlumab, pirfenidone, and/or nintedanib) was initiated 16 weeks post-irradiation and continued for 8 weeks. Pamrevlumab (FG) was given IP, BIW, at 40 mg/kg; pirfenidone (PF) was given PO in chow, QD, at 300 mg/kg; nintedanib (ND) was given PO in chow, QD, at 100 mg/kg. Treatment with each agent alone, with combinations of two, and with a triple combination were carried out. Controls included non-irradiated mice, mice that were irradiated and not treated, and mice that were irradiated and given human IgG. Endpoint measurements were taken at 24 weeks for HRCT (lung structure), blood gas analysis (lung function), histology and gene expression analysis. […]
# [2] = Phase two study in IPF patients: treatment emergent adverse events; type: in vivo, human; details: Phase two trial, 48 weeks
# Experimental: A double-blind, placebo-controlled Phase two study was conducted in which 103 patients, randomized (1:1) to receive pamrevlumab or placebo, were treated for 48 weeks. Patients' self-administered the Saint George's Respiratory Questionnaire (SGRQ) to assess changes in health-related quality of life parameters over the course of the study. This questionnaire was developed for patients with chronic airflow limitation and the results correlate well with established measures of symptom level, disease activity and disability. Patients completed the SGRQ on Day 1 (baseline) and every 12 weeks thereafter during the 48-week treatment period. The SGRQ comprises three domains (symptoms, activity, and impact) with the score for each domain ranging from 0 to 100, with higher scores indicating worse health-related quality of life (Jones P W, et al. Respir Med 1991; 85:Suppl B:25-31; Barr J T et al. Clin Ther 2000; 22:1121-45).
# Patients in the Phase two clinical trial described above in Example 2 were monitored for the occurrence of treatment emergent adverse events. The percentage of patients treated with an anti-CTGF antibody (pamrevlumab) that experienced diarrhea was 16.0% compared to 7.5% for placebo treated patients. The percentage of patients treated with pamrevlumab that experienced nausea was 14.0% compared to 13.2% for placebo treated patients. […]
# IPF = test: Phase two study in IPF patients: UCSD Shortness of Breath Questionnaire (UCSD-SOBQ); type: in vivo, human; details: for mean UCSD-SOBQ score: IPF patients, n=22, FIG. 6 change from baseline
# Text: A sub-set of patients in the Phase two clinical trial described above in Example 2 (pamrevlumab n=22, placebo n=20), self-administered the University of California, San Diego—Shortness of Breath Questionnaire (UCSD-SOBQ) at the start of therapy (baseline) and then every 12 weeks while enrolled in the 48 week study. The UCSD-SOBQ has been validated as an acceptable measure to assess change in dyspnea over time in IPF (Swigris et al., Respir Med. 2012 October; 106(10): 1447-1455).
# The questionnaire has 24 sections that assess dyspnea associated with activities of daily living (ADLs) in different lung disorders, including IPF. Twenty-one sections relate to the severity of dyspnea experienced during different daily activities, while three sections assess the limitations due to shortness of breath, fear of harm from overexertion and fear of shortness of breath. Each question has a 6-point scale (0=“not at all” to 5=“maximal or unable to do because of breathlessness”. The total score ranges from 0 to 120, with higher scores indicating greater dyspnea.
# An ANCOVA model with treatment as fixed effect and baseline UCSD-SOBQ score as covariate was applied to observed and imputed data at each visit. Missing results at post-baseline visits were mputed using the predicted values from a random coefficient model. The analysis included all subjects who had baseline and at least one post-baseline UCSD-SOBQ evaluation.
# [3] = system: fibrosis genes in irradiated lung; test: Microarray analysis of mRNA transcripts in irradiated lung; type: in vivo, mouse
# Experimental: C57B1/6 mice were irradiated with 14.5 Gy photons; full thorax, single dose. Treatment with therapeutic agent(s) (pamrevlumab, pirfenidone, and/or nintedanib) was initiated 16 weeks post-irradiation and continued for 8 weeks. Pamrevlumab (FG) was given IP, BIW, at 40 mg/kg; pirfenidone (PF) was given PO in chow, QD, at 300 mg/kg; nintedanib (ND) was given PO in chow, QD, at 100 mg/kg. Treatment with each agent alone, with combinations of two, and with a triple combination were carried out. Controls included non-irradiated mice, mice that were irradiated and not treated, and mice that were irradiated and given human IgG. Endpoint measurements were taken at 24 weeks for HRCT (lung structure), blood gas analysis (lung function), histology and gene expression analysis.
# Microarray analysis of mRNA transcripts of numerous genes at 24 weeks after RT were carried out by standard techniques to compare the expression profiles of irradiated and treated animals to irradiated animals that were not further treated. The results of the later group, RT (control), were used to normalize the expression data from the other groups. Briefly, RNA from 4-7 animals per condition (RT (control), RT+hIgG, RT+FG, RT+ND, RT+PF, RT+FG+ND, RT+FG+PF, RT+ND+PF, RT+FG+ND+PF). Affymetrix 430 2.0 data was used. RT induced changes (≥1.5×, p<0.05) were filtered for treatment dependent correction (>50% correction, p<0.05). 80 RT-induced and 68 RT-suppressed transcripts were normalized at least 50% by one or more treatments. The resulting list was dominated by pamrevlumab-dependent normalization. Functional analysis indicated pamrevlumab treatment preferentially normalized RT genes known to be regulated by TGFβ and TNF.
# [4] = irradiated mouse lung, 24 weeks after RT, 8 weeks treatment, RT fold change 0.4
substance,measurement,setting,value
pamrevlumab,radiation-induced increase in lung density (Hounsfield Units),[1],significantly inhibited the increase in radiation-induced lung density from baseline
same,percentage of patients that experienced diarrhea,[2]; placebo 7.5%,16.0%
same,percentage of patients that experienced nausea,[2]; placebo 13.2%,14.0%
same,mean UCSD-SOBQ score,IPF; Week 12,1.98
same,mean UCSD-SOBQ score,IPF; Week 36,3.76
same,mean UCSD-SOBQ score,IPF; Week 48,2.26
same,difference in mean UCSD-SOBQ score between the two arms,"IPF; pamrevlumab vs placebo, Week 48, p-value=0.0460",−13.32 points
same,"% Normalization of gene expression, Igfbp5","[3]; irradiated mouse lung, 24 weeks after RT, 8 weeks treatment, RT fold change 0.3",70%
same,"% Normalization of gene expression, Abca3",[3]; [4],75%
same,"% Normalization of gene expression, Gdf2",[3]; [4],68%
same,"% Normalization of gene expression, Cx3cl1","[3]; irradiated mouse lung, 24 weeks after RT, 8 weeks treatment, RT fold change 0.5",57%
same,"% Normalization of gene expression, Retnla","[3]; irradiated mouse lung, 24 weeks after RT, 8 weeks treatment, RT fold change 2.0",43%
same,"% Normalization of gene expression, Nt5e","[3]; irradiated mouse lung, 24 weeks after RT, 8 weeks treatment, RT fold change 2.1",53%
same,"% Normalization of gene expression, Plat","[3]; irradiated mouse lung, 24 weeks after RT, 8 weeks treatment, RT fold change 2.2",51%
same,"% Normalization of gene expression, Ccr2","[3]; irradiated mouse lung, 24 weeks after RT, 8 weeks treatment, RT fold change 2.4",37%
same,"% Normalization of gene expression, Igfbp7","[3]; irradiated mouse lung, 24 weeks after RT, 8 weeks treatment, RT fold change 2.6",50%
same,"% Normalization of gene expression, Cdkn2a","[3]; irradiated mouse lung, 24 weeks after RT, 8 weeks treatment, RT fold change 2.7",35%
same,"% Normalization of gene expression, Apln","[3]; irradiated mouse lung, 24 weeks after RT, 8 weeks treatment, RT fold change 5.3",59%
same,"% Normalization of gene expression, Wisp1","[3]; irradiated mouse lung, 24 weeks after RT, 8 weeks treatment, RT fold change 6.9",52%
same,"% Normalization of gene expression, Wisp1","[3]; irradiated mouse lung, 24 weeks after RT, 8 weeks treatment, RT fold change 11.9",54%
same,normalization of fibrosis-related transcripts,"[3]; microarray at 24 weeks after RT, monotherapies compared",normalized more fibrosis-related transcripts than other monotherapies
